Test results: article PMC3816707, “Diamidines versus Monoamidines as Anti-Pneumocystis Agents: An in vivo Study” (Pharmaceuticals, 2013)
Counter-ions that a name gives are not always drawn. One block for each molecule: values may come before it.

What was measured:
[1] = In vitro cytotoxicity, MTT-based cell viability assay; design: species or system murine; conditions: mouse, 3T6 embryonal fibroblast cells (adherent); 3T6 murine embryonal fibroblast cell line, MTT, triplicate, mean
Protocol: (§1) In vitro cytotoxicity assays with established cell lines are useful tools for the general screening of chemicals in toxicological studies. […] The procedure, according to the manufacturer recommendations, was based on the colorimetric determination of the succinate dehydrogenase activity by visualization (540 nm) of the conversion of a tetrazolium salt into formazan. With a microplate reader (Thermo Labsystems Multiskan Ascent 354, Waltham, MA, USA), the optical density of each well was measured at 540 nm against the background absorbance whose reference filter was set at 690 nm. Blank controls (culture medium), free-drug controls, and solvent (DMSO) controls were included in each assay. All cytotoxicity assays were set up in triplicate. […] The IC50 parameters were obtained by plotting % inhibition values against the logarithm of concentration for each compound.
(§2) For each compound, the % inhibition of activity against the concentration scale was plotted. The 50% inhibiting concentrations of cell proliferation (IC50) were calculated by locating the x-axis values corresponding to one-half of the absorbance values. The experiments were repeated in triplicate for each substance.

Pneumocystis carinii [2] = experiment: In vitro anti-Pneumocystis activity, P. carinii axenic short culture (4 days); assay type: cell-based; conditions: for Anti-Pneumocystis activity % inhibition vs. free-drug control at 0.1 µg/mL / Anti-Pneumocystis activity % inhibition vs. free-drug control at 10 µg/mL / Anti-Pneumocystis activity % inhibition vs. free-drug control at 50 µg/mL / inhibition of growth at 50 µg/mL: 4 days axenic culture; for inhibition of growth at 50 µg/mL / inhibition of growth at 0.1 µg/mL / inhibition of growth at 10 µg/mL / EC50: Pneumocystis carinii, 96 h; for inhibition of growth at 50 µg/mL: read-out: Anti-Pneumocystis activity % inhibition vs. free-drug control at 50 µg/mL; for inhibition of growth at 0.1 µg/mL: read-out: Anti-Pneumocystis activity % inhibition vs. free-drug control at 0.1 µg/mL, 0.1 µg/mL, 4 days axenic culture; for inhibition of growth at 10 µg/mL: read-out: Anti-Pneumocystis activity % inhibition vs. free-drug control at 10 µg/mL, 10 µg/mL, 4 days axenic culture; for EC50: 150 to 1.35 10^-5 µM, read-out: EC50 against P. carinii
Protocol: Drug stock solutions in DMSO (10 mg/mL) were diluted in Dulbecco's Modified Eagle's Medium (DMEM, BioWhittaker) supplemented with 10% heat-inactivated foetal calf serum (FCS, Gibco-BRL) to produce the required drug concentrations. P. carinii axenic short cultures were performed as follows. All the experiments were carried out in 24-well plates with a final volume of 2 mL of DMEM supplemented with 10% of heat-inactivated fetal calf serum (FCS) containing a final inoculum of 10^6 organisms per mL. Plates were incubated for 4 days in an atmosphere of 5% CO2 at 37 °C. Then, P. carinii organisms were collected and quantified after RAL-555 panoptic staining. In parallel with these free-drug growth control wells, the anti-Pneumocystis effect of pentamidine and the other bisbenzamidines considered in this study was investigated in the same conditions. All molecules have been screened at a high (50 µg/mL), a medium (10 µg/mL), and a low (0.1 µg/mL) concentration. All experiments were performed in triplicate and data were statistically processed using Student’s t-test. Two-sided p-values < 0.05 were deemed to be statistically significant.
The parameters of this pharmacodynamic model were calculated by nonlinear least-squares regression techniques using commercial software (Sigma Plot, Systat Software Inc., San Jose, CA, USA).

[3] = design: method as in PMID 21147326; conditions: in comparison with pentamidine and the diamidine 6; cited from earlier work
3T6 fibroblast cell line = experiment: In vitro cytotoxicity, MTT-based cell viability assay; design: species or system murine; conditions: for Cytotoxicity: 3T6 cell line; for IC50 fold higher than for the reference compound (pentamidine): 3T6 cytotoxicity
Protocol: as §1, §2

Pneumocystis carinii [4] = experiment: In vivo anti-Pneumocystis activity, P. carinii pneumonia in nude rats; design: species or system athymic Lou nu/nu rats; conditions: for % of inhibition versus control rats: once a day for 10 days, P. carinii count in lung homogenates; for In vivo anti-Pneumocystis activity: subcutaneous, 5 and 20 mg/kg/day, 10 days
Protocol: To evaluate the in vivo anti-Pneumocystis activity, drug stock solutions in DMSO (300 mg/mL) were diluted in phosphate buffered saline (PBS, BioWhittaker) to produce the required final drug concentrations just before subcutaneous injection. Seven weeks p.i., animals were divided into groups of 4, and then pentamidine and derivatives 4 and 6 were dosed at 5 or 20 mg/kg by subcutaneous route. The drugs were given once a day for 10 consecutive days. The final concentration of DMSO in diluted drug solutions was maintained between 1.5% and 6%. Control animals received doses of 6%-DMSO in sterile water. Twenty-four hours after the end of the treatment, animals were euthanatized and the lung homogenised in a Stomacher-400 blender as previously described. Quantitation of trophic forms, sporocytes, and cysts was performed on air-dried smears stained with RAL-555 stain [34, 37, 38]. Therapeutic efficacy was assessed by counting P. carinii parasites in lung homogenates and comparing them with those of the untreated controls at the end of the experiment. The results were expressed as percentage of inhibition versus drug-free animal controls and presented as mean and standard error. Data were analyzed using a two-way analysis of variance (PROC MIXED, SAS Institute, Cary, NC, USA), with sex, drug, and their interaction as independent predictors. Due to heterogeneity in parasites count distributions, the first step of the analysis was the selection of the within-subject covariance, based either on likelihood ratio tests or on the Bayesian Information Criterion. Then, tests of the fixed effects were performed. No interaction was found between sex and drug. Therapeutic efficacy was assessed with polynomial contrasts. Regression underlying assumptions were visually inspected with residual plots. Statistical significance was set at α = 0.05.
An in vivo experiment was performed in order to explore whether it reflected in vitro results. The used in vivo model was the athymic Pneumocystis-free Lou nu/nu rats non-surgically inoculated by endo-tracheal route with a suspension of P. carinii organisms. […] Rats developed high infection levels 6–8 weeks post inoculation without secondary fungal or bacterial infection. […] Thus animals were endotracheally infected after 2 weeks of dexamethasone administration (1 mg/L, drinking water) with 10^7 P. carinii organisms. Drugs were administered once a day by subcutaneous route for 10 consecutive days. Untreated animals developed extensive infections at the end of the treatment period. The number of total P. carinii organisms per lung in DMSO control rats was 1.26 ± 0.20 × 10^10. […] On the other hand, whereas showing a strong anti-Pneumocystis activity in vitro, the monoamidine 7 appeared to be poorly potent when administered subcutaneously to Pneumocystis-infected rats, even at the dose of 20 mg/kg/day.

[5] = Visual observations of treated rats (behavior, injection site); assay type: in vivo, rat; conditions: for Cutaneous reaction at the site of injections: subcutaneous treatment, data not shown
[6] = Hill equation, 4 days of culture

SMILES: Nc1ccc(N2CCN(c3ccc(N)cc3)CC2)cc1 [Compound 4]
- IC50 [1]: 40.8 ± 4.4 µM
- Anti-Pneumocystis activity % inhibition vs. free-drug control at 0.1 µg/mL (Pneumocystis carinii [2]): inactive
- Anti-Pneumocystis activity % inhibition vs. free-drug control at 10 µg/mL (Pneumocystis carinii [2]): inactive
- Anti-Pneumocystis activity % inhibition vs. free-drug control at 50 µg/mL (Pneumocystis carinii [2]): inactive

SMILES: Nc1ccc(N2CCN(c3ccccc3)CC2)cc1 [Compound 5, 1-(4-Aminophenyl)-4-phenylpiperazine]
- IC50 [1]: 10.2 ± 0.6 µM
- melting point: 146 to 149 °C
- Anti-Pneumocystis activity % inhibition vs. free-drug control at 0.1 µg/mL (Pneumocystis carinii [2]): inactive
- Anti-Pneumocystis activity % inhibition vs. free-drug control at 10 µg/mL (Pneumocystis carinii [2]): inactive
- Anti-Pneumocystis activity % inhibition vs. free-drug control at 50 µg/mL (Pneumocystis carinii [2]): inactive

SMILES: N=C(N)c1ccc(N2CCN(c3ccccc3)CC2)cc1 [Compound 3]
- IC50 [1]: 56.06 ± 0.39 µM
- inhibition of growth at 50 µg/mL (Pneumocystis carinii [2]): 99 ± 0.1%
- inhibition of growth at 0.1 µg/mL (Pneumocystis carinii [2]): 8.3 ± 14.4%
- inhibition of growth at 10 µg/mL (Pneumocystis carinii [2]): 99 ± 0.1%

SMILES: CN(CCNc1ccc(C(=N)N)cc1)c1ccc(C(=N)N)cc1 [Compound 8]
- IC50 [1]: 2.48 ± 0.35 µM
- Cytotoxicity (3T6 fibroblast cell line): cytotoxicity similar to that of pentamidine
- inhibition of growth at 50 µg/mL (Pneumocystis carinii [2]): 99%
- inhibition of growth at 0.1 µg/mL (Pneumocystis carinii [2]): 15 ± 12.5%
- inhibition of growth at 10 µg/mL (Pneumocystis carinii [2]): 99%

SMILES: CN(CCNc1ccccc1)c1ccc(C(=N)N)cc1 [Compound 9, N-(Benzamidine-4-yl)-N-methyl-N′-phenylethane-1,2-diamine hydrochloride salt]
- IC50 [1]: 3.11 ± 0.09 µM
- Cytotoxicity (3T6 fibroblast cell line): cytotoxicity similar to that of pentamidine
- Anti-Pneumocystis activity % inhibition vs. free-drug control at 0.1 µg/mL (Pneumocystis carinii [2]): inactive
- inhibition of growth at 50 µg/mL (Pneumocystis carinii [2]): 88.7 ± 2.5%
- inhibition of growth at 10 µg/mL (Pneumocystis carinii [2]): 86.3 ± 4%

Second part, led by results:

- EC50 (Pneumocystis carinii [2]; [6]): 0.4 ± 0.08 µM
SMILES: N=C(N)c1ccc(NCCNc2ccccc2)cc1 [Compound 7, N-(Benzamidine-4-yl)-N′-phenylethane-1,2-diamine sulfate salt]
- Elimination from plasma [3]: more rapidly eliminated from plasma
- IC50 [1]: 40.6 ± 1.3 µM
- Cytotoxicity (3T6 fibroblast cell line): no cytotoxicity
- IC50 fold higher than for the reference compound (pentamidine) (3T6 fibroblast cell line): 20 fold
- Slope S (steepness of the concentration-effect curve) (Pneumocystis carinii [2]; [6]): 2.00 ± 0.54
- Emax (Pneumocystis carinii [2]; Hill equation, maximum effect, 4 days of culture): 99.37 ± 2.54%
- inhibition of growth at 50 µg/mL (Pneumocystis carinii [2]): 99.5 ± 0.4%
- inhibition of growth at 0.1 µg/mL (Pneumocystis carinii [2]): 42 ± 12.5%
- inhibition of growth at 10 µg/mL (Pneumocystis carinii [2]): 98.7 ± 0.6%
- % of inhibition versus control rats (Pneumocystis carinii [4]; 5 mg/kg/day subcutaneous): 43.1%
- % of inhibition versus control rats (Pneumocystis carinii [4]; 20 mg/kg/day subcutaneous): 54.3%
- In vivo anti-Pneumocystis activity (Pneumocystis carinii [4]): poorly potent

- EC50 (Pneumocystis carinii [2]; [6]): 0.08 ± 0.01 µM
SMILES: N=C(N)c1ccc(OCCCCCOc2ccc(C(=N)N)cc2)cc1 [Compound 1, pentamidine, reference compound]
- IC50 [1]: 1.98 ± 0.2 µM
- Cutaneous reaction at the site of injections [5]: deleterious wounds could be seen on the skin
- Slope S (steepness of the concentration-effect curve) (Pneumocystis carinii [2]; [6]): 1.09 ± 0.23
- inhibition of growth at 50 µg/mL (Pneumocystis carinii [2]): 99 ± 0.1%
- inhibition of growth at 0.1 µg/mL (Pneumocystis carinii [2]): 89%
- inhibition of growth at 10 µg/mL (Pneumocystis carinii [2]): 99 ± 0.1%
- % of inhibition versus control rats (Pneumocystis carinii [4]; 5 mg/kg/day subcutaneous): 84.6%
- % of inhibition versus control rats (Pneumocystis carinii [4]; 20 mg/kg/day subcutaneous): 95.3%

- Cutaneous reaction at the site of injections [5]: did not develop any cutaneous reaction
- Behavior during the treatment ([5]; visual observations): quite normal behavior
- EC50 (Pneumocystis carinii [2]; [6]): 0.6 ± 0.12 µM
SMILES: N=C(N)c1ccc(NCCNc2ccc(C(=N)N)cc2)cc1 [Compound 6, N,N′-bis(benzamidine-4-yl)ethane-1,2-diamine]
- IC50 [1]: 30.2 ± 1.14 µM
- Cytotoxicity (3T6 fibroblast cell line): no cytotoxicity
- IC50 fold higher than for the reference compound (pentamidine) (3T6 fibroblast cell line): 15 fold
- Slope S (steepness of the concentration-effect curve) (Pneumocystis carinii [2]; [6]): 1.49 ± 0.31
- inhibition of growth at 50 µg/mL (Pneumocystis carinii [2]): 98.7 ± 0.6%
- inhibition of growth at 0.1 µg/mL (Pneumocystis carinii [2]): 29.8 ± 19.7%
- inhibition of growth at 10 µg/mL (Pneumocystis carinii [2]): 97.7 ± 0.6%
- % of inhibition versus control rats (Pneumocystis carinii [4]; 5 mg/kg/day subcutaneous): 78.4%
- % of inhibition versus control rats (Pneumocystis carinii [4]; 20 mg/kg/day subcutaneous): 86.2%
- In vivo anti-Pneumocystis activity (Pneumocystis carinii [4]): strong anti-Pneumocystis activity comparable to that of pentamidine at both doses

- melting point: 212 to 215 °C
SMILES: CN(CCNc1ccccc1)c1ccc(C(=N)N)cc1 (as salt: hydrochloride) [Compound 9, N-(Benzamidine-4-yl)-N-methyl-N′-phenylethane-1,2-diamine hydrochloride salt]

- melting point: 191 to 193 °C
SMILES: N=C(N)c1ccc(NCCNc2ccccc2)cc1 (as salt: sulfate) [Compound 7, N-(Benzamidine-4-yl)-N′-phenylethane-1,2-diamine sulfate salt]
